Converted amounts (≈) assume the structure as drawn.
What was measured:
[1] = Intrinsic clearance in human liver microsomes; format: ADME; conditions: read-out: CLH
[2] = target: Transient receptor potential cation channel subfamily M member 8 (Homo sapiens, UniProt Q7Z2W7); experiment: Antagonist activity at human TRPM8 expressed in HEK293 cells assessed as inhibition of menthol induced Ca2+ influx; format: cell-based
[3] = Equilibrium solubility of the compound; format: physicochemical
[4] = target: Transient receptor potential cation channel subfamily M member 8 (Rattus norvegicus, UniProt Q8R455); experiment: Antagonist activity at rat TRPM8 assessed as inhibition of menthol induced Ca2+ influx by cell-based assay
Transient receptor potential cation channel subfamily M member 8 (Rattus norvegicus, UniProt Q8R455), sequence (Q8R455 whole entry): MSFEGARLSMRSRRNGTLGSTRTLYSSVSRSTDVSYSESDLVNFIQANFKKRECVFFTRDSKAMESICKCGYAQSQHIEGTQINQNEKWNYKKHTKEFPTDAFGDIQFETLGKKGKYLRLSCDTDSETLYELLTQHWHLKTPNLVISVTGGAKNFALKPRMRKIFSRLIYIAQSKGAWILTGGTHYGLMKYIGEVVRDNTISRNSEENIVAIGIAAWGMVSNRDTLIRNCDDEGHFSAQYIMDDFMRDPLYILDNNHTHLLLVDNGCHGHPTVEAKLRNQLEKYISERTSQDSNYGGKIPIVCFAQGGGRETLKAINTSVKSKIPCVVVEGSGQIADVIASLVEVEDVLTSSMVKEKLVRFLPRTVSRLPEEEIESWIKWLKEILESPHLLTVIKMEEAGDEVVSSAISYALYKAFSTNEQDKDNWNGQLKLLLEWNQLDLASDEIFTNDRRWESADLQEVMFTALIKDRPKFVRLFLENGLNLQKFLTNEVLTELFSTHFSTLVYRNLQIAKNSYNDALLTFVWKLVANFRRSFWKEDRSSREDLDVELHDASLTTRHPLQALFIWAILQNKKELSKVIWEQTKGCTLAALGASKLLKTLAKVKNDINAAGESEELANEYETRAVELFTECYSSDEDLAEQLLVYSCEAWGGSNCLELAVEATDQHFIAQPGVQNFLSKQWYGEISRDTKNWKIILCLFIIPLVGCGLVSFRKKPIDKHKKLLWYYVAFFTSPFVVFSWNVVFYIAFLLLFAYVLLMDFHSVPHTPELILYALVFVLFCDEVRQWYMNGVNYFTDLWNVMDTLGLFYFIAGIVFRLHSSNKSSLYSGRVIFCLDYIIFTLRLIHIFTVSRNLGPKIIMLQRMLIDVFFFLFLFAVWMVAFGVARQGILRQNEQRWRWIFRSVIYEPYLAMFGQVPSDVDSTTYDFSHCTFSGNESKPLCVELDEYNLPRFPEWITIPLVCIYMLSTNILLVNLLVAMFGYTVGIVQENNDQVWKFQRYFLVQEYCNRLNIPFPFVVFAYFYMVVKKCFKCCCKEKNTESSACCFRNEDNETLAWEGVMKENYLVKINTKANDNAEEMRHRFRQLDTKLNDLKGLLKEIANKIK

[5] = Fraction unbound in rat plasma; format: ADME, cell-free
[6] = Intrinsic clearance in rat liver microsomes; format: ADME; conditions: read-out: CLH
[7] = test system: Rattus norvegicus; experiment: Antiallodynic activity in icilin-induced wet-dog shake rat model compound administered po 1 hr prior to icilin challenge measured over 30 mins; format: functional
[8] = target: Transient receptor potential cation channel subfamily A member 1 (Rattus norvegicus, UniProt Q6RI86); experiment: Antagonist activity at rat TRPA1 expressed in HEK293 cells assessed as inhibition of AITC-induced Ca2+ influx; format: cell-based
Transient receptor potential cation channel subfamily A member 1 (Rattus norvegicus, UniProt Q6RI86), sequence (Q6RI86 whole entry): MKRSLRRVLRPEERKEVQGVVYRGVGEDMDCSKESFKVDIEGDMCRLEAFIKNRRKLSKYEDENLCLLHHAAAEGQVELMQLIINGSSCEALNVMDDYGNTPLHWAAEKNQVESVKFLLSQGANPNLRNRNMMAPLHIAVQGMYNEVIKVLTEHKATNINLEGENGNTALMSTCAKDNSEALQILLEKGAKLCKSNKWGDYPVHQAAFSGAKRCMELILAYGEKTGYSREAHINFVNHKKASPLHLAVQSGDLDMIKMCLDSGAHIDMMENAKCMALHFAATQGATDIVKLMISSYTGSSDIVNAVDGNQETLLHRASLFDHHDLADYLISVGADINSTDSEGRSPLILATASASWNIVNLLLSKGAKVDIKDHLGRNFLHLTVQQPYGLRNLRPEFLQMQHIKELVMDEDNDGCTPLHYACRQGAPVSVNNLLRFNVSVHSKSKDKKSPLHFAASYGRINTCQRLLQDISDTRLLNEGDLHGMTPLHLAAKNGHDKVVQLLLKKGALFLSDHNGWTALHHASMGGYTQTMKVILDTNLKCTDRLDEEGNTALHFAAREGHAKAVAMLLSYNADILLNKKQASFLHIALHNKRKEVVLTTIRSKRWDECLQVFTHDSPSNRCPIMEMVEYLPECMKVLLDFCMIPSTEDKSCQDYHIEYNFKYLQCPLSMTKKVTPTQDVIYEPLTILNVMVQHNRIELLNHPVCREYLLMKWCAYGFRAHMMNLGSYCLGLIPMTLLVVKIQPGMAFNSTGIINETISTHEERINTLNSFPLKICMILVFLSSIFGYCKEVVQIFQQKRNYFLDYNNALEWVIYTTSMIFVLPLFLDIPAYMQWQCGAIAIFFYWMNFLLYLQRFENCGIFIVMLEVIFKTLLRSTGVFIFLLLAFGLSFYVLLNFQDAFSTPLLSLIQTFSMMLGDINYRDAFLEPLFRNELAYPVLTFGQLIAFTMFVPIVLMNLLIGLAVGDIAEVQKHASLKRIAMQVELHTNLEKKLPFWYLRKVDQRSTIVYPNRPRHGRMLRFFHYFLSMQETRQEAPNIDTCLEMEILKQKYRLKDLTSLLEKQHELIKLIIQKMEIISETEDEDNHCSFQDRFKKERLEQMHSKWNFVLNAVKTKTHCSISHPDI

[9] = target: Transient receptor potential cation channel subfamily V member 1 (Rattus norvegicus, UniProt O35433); experiment: Antagonist activity at rat TRPV1 expressed in HEK293 cells assessed as inhibition of capsaicin-induced Ca2+ influx; format: cell-based
Transient receptor potential cation channel subfamily V member 1 (Rattus norvegicus, UniProt O35433), sequence (O35433 whole entry, looked up): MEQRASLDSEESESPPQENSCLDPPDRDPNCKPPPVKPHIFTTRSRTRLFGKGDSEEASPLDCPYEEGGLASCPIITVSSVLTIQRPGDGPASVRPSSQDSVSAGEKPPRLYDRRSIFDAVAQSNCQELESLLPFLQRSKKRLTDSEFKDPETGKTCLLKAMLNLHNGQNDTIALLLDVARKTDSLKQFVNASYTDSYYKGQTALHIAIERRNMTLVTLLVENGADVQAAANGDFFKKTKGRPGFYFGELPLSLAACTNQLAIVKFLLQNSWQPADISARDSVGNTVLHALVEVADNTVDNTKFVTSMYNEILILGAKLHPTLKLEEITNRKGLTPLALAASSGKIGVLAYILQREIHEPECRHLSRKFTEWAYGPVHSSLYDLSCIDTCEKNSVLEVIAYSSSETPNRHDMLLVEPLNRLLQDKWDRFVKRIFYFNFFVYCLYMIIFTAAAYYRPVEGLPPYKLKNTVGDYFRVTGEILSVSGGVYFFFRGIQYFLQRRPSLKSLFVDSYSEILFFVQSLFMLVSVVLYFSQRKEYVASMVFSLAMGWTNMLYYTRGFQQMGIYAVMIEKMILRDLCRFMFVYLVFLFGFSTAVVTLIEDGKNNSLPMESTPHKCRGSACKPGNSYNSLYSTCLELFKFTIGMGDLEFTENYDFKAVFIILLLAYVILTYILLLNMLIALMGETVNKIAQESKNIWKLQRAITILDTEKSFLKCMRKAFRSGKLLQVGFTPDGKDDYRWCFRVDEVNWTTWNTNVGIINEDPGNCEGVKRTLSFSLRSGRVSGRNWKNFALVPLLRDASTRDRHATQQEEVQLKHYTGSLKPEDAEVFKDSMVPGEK

[10] = Cmax in rat at 3 mg/kg, po; format: ADME, organism-based; design: dose 3 mg/kg, route oral; conditions: in vivo
[11] = target: Transient receptor potential cation channel subfamily V member 1 (Homo sapiens, UniProt Q8NER1); experiment: Antagonist activity at human TRPV1 expressed in HEK293 cells assessed as inhibition of capsaicin-induced Ca2+ influx; format: cell-based
Transient receptor potential cation channel subfamily V member 1 (Homo sapiens, UniProt Q8NER1), sequence (Q8NER1 whole entry, looked up): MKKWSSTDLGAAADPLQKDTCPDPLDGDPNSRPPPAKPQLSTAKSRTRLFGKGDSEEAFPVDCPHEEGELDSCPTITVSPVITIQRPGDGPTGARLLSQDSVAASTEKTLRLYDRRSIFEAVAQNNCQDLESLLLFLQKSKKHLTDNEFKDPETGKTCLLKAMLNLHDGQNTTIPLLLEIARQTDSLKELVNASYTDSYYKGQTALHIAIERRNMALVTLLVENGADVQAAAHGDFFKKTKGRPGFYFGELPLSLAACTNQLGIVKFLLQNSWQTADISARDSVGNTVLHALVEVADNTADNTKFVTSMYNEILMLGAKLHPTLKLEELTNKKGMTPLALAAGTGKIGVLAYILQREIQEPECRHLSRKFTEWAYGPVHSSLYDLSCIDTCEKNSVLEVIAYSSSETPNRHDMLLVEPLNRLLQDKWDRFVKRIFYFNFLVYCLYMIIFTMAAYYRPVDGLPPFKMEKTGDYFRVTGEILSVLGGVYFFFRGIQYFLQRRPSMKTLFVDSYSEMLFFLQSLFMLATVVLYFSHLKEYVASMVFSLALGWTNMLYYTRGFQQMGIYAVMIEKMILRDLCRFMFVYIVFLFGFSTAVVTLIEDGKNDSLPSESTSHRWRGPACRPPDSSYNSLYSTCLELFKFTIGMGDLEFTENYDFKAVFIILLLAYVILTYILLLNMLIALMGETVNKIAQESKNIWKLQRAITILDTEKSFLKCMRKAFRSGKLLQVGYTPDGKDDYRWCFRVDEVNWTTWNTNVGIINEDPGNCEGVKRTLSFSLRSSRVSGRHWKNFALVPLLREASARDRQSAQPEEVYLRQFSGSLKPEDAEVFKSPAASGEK

[12] = target: Transient receptor potential cation channel subfamily V member 4 (Homo sapiens, UniProt Q9HBA0); experiment: Antagonist activity at human TRPV4 expressed in HEK293 cells assessed as inhibition of hypotonic solution-induced Ca2+ influx; format: cell-based
[13] = Oral bioavailability in rat at 3 mg/kg; format: ADME, organism-based; conditions: in vivo
[14] = target: Transient receptor potential cation channel subfamily A member 1 (Homo sapiens, UniProt O75762); experiment: Antagonist activity at human TRPA1 expressed in HEK293 cells assessed as inhibition of AITC-induced Ca2+ influx; format: cell-based

Transient receptor potential cation channel subfamily M member 8 (Homo sapiens, UniProt Q7Z2W7), sequence (Q7Z2W7 whole entry): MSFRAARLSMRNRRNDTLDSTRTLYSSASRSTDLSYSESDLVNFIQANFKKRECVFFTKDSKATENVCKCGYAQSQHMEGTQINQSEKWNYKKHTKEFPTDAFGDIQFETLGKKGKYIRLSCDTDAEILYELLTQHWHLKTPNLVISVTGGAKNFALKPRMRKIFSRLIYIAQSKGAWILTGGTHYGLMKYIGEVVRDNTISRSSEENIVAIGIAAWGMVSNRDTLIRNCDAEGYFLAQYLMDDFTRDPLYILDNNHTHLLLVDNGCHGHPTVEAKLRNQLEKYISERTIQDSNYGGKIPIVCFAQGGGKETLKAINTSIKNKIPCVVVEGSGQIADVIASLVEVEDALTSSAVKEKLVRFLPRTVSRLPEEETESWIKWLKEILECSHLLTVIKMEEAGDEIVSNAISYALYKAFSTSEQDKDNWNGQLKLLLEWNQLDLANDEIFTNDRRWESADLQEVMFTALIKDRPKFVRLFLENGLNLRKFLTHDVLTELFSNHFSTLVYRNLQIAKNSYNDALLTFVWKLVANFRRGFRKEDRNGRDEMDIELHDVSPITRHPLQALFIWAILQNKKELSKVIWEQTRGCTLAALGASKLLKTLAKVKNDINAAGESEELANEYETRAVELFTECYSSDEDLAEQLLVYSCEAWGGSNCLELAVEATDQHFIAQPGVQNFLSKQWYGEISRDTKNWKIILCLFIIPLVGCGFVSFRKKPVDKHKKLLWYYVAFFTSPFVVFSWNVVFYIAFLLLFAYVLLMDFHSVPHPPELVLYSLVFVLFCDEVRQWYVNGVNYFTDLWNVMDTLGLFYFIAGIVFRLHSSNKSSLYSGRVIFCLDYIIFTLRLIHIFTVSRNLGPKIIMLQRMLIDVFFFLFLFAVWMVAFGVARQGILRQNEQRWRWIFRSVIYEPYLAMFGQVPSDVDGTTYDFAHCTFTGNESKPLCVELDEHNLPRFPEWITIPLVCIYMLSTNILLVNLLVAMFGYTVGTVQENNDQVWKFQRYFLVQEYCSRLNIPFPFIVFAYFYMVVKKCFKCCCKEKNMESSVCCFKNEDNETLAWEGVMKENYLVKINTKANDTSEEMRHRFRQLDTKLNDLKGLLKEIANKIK

Structure (SMILES)	CLint scaled [1] [mL/min/kg]	IC50 [2] [nM]	other results
O=C(O)c1ccc(S(=O)(=O)N(CCN2CCOCC2)c2ncc(C(F)(F)F)cc2Cl)cc1	< 7	3720	–
O=C(O)c1ccc(S(=O)(=O)N(Cc2ccccc2OC(F)(F)F)c2ncc(C(F)(F)F)cc2Cl)cc1	< 7	96	–
Cc1c(N(Cc2ccc(C(F)(F)F)c(F)c2)S(=O)(=O)c2ccc(C(=O)O)cc2)sc2ccccc12	8.5	6.2	–
CN(C)C(=O)c1ccc(S(=O)(=O)N(Cc2ccccc2)c2ncc(C(F)(F)F)cc2Cl)cc1	> 168	67	solubility thermodynamic [3]: 37 µM (≈ 18.4 µg/mL)
O=C(O)c1ccc(S(=O)(=O)N(Cc2ccc(C(F)(F)F)cc2)c2ncc(Cl)cc2Cl)cc1	< 7	11	IC50 [4]: 9 nM; fraction unbound [5]: 0.011; CLint scaled [6]: < 10.4 mL/min/kg; ED50 [7]: 1.3 mg/kg
O=C(O)c1ccc(S(=O)(=O)N(CCc2ccccc2)c2ncc(C(F)(F)F)cc2Cl)cc1	–	762	–
N#Cc1cc(C(F)(F)F)cnc1N(Cc1ccccc1)S(=O)(=O)c1ccc(C(=O)O)cc1	–	2470	–
Cc1cc(C(F)(F)F)cnc1N(Cc1ccccc1)S(=O)(=O)c1ccc(C(=O)O)cc1	–	736	–
O=C(O)c1ccc(S(=O)(=O)N(Cc2cccc(C(F)(F)F)c2)c2ncc(C(F)(F)F)cc2Cl)cc1	< 7	41	–
O=C(O)c1ccc(S(=O)(=O)N(Cc2ccc(OC(F)(F)F)cc2)c2ncc(C(F)(F)F)cc2Cl)cc1	< 7	8.3	IC50 [4]: 5.8 nM; IC50 [8]: > 10000 nM; fraction unbound [5]: 0.0031; IC50 [9]: > 3000 nM; Cmax [10]: 2300 ng/mL; CLint scaled [6]: < 10.4 mL/min/kg; IC50 [11]: > 10000 nM; ED50 [7]: 0.65 mg/kg; IC50 [12]: > 3000 nM; bioavailability [13]: 86%; IC50 [14]: > 10000 nM
O=C(O)c1ccc(S(=O)(=O)N(Cc2ccccc2)c2ncccc2Cl)cc1	–	9860	–
O=C(O)c1ccc(S(=O)(=O)N(CCCc2ccccc2)c2ncc(C(F)(F)F)cc2Cl)cc1	81	49	–
O=C(O)c1ccc(S(=O)(=O)N(Cc2ccccc2)c2ncc(C(F)(F)F)cc2Cl)cc1	< 7	61	solubility thermodynamic [3]: 185 µM (≈ 87.1 µg/mL)
O=S(=O)(c1ccc(CO)cc1)N(Cc1ccccc1)c1ncc(C(F)(F)F)cc1Cl	> 168	42	solubility thermodynamic [3]: 35 µM (≈ 16 µg/mL)

— ChEMBL document CHEMBL3351889, “Identification of a novel 2-pyridyl-benzensulfonamide derivative, RQ-00203078, as a selective and orally active TRPM8 antagonist” (Bioorg Med Chem Lett, 2014)
